The source of these data is patent US10322191B2, “Targeted conjugates and particles and formulations thereof” (TARVEDA THERAPEUTICS, INC., priority 2014, dated 2019).

Read-outs that look alike come from different tables or passages of the source.

For series [1], the target named is T1, SSTR2 (Homo sapiens, UniProt P30874). As to the kind of experiment: PathHunter eXpress Activated GPCR Internalization agonist assay. Format: cell-based. Further details: expressed in transfected cells. The note with it: receptor internalization, agonist dose response. On the procedure: Two conjugates were assessed in an in vitro assay evaluating SSTR2. The steps outlined below provide the assay volumes and procedure for performing agonist assays using the PathHunter eXpress Activated GPCR Internalization cells and PathHunter Detection Reagents generally according to the manufacturer's recommendations. GraphPad Prism® was used to plot the agonist dose response.
T1 sequence (P30874 whole entry): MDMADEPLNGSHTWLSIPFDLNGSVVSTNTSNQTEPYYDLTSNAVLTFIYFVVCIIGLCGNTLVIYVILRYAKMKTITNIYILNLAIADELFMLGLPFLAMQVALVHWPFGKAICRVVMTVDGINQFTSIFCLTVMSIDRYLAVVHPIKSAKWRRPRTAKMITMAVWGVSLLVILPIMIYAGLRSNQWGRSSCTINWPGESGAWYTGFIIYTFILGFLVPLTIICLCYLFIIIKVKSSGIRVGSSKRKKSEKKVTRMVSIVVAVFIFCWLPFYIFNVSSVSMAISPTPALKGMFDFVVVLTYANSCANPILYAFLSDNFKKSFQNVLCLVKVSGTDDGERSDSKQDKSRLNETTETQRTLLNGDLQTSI

Series [2] is described as follows: Solubility in aqueous media containing surfactants such as Tween 80. The format is physicochemical. The note with it: aqueous Tween 80.
Series [3] relates to NCI-H524 (ATCC) human lung cancer cells. The format is cell-based. An outline of the steps: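 NCI-H524 cells at 5,000/well were exposed to conjugate for 2 h from 20 μM top dose (ten-point, three-fold dilutions), washed, then grown a further 70 h. For competition, cells were pretreated 30 min with 100 μM octreotide. CellTiter Glo readout; % inhibition vs vehicle; four-parameter IC50.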

The target of series [4] is T1, SSTR2. The series is described as follows: Radioligand-receptor binding assay, [125I] labeled somatostatin, membranes from SSTR2 expressing CHO-K1 cells. Further details: host or cells: CHO-K1. On the procedure:
Two conjugates were assessed in an in vitro assay evaluating binding to the somatostatin receptor 2 (SSTR2). A radioligand-receptor binding assay was conducted at Eurofins Panlabs (Taiwan) to determine the affinity of conjugates described herein to the SSTR2. The assay measures binding of radiolabeled ligand, [^125I] labeled somatostatin, to human SSTR2 using membrane preparations from SSTR2 expressing CHO-K1 cells. Membranes were incubated with radiolabeled somatostatin (0.03 nM) in the presence of conjugate/compound starting at a dose of 10 uM using 6× serial dilutions to obtain a 10-pt curve. After a four-hour incubation, membranes were filtered and washed 3× and counted to determine the remaining [^125I] somatostatin bound to the receptor. IC50 values were determined by a non-linear, least squares regression analysis using MathIQ™ (ID Business Solutions Ltd., UK). The Ki values were calculated using the equation of Cheng and Prusoff (Cheng and Prusoff, Biochem. Pharmacol. 22: 3099-3108, 1973) using the observed IC50 of the tested conjugate/compound, the concentration of radioligand employed in the assay, and the historical values for the KD of the ligand obtained at Eurofins.

Series [5] relates to NCI-H69 SCLC (small cell lung cancer) tumors. As to the kind of experiment: H69 tumor DM-1 levels by LC/MS-MS. The format is in vivo, mice. Particulars: 24 hour time point; dosed at 1 mg/kg (conjugates, nanoparticles) or 0.4 mg/kg for DM-1. On the procedure:
To examine the ability of conjugates of the present invention to accumulate in tumors, a murine cancer model was used. All mice were treated in accordance with the OLAW Public Health Service Policy on Human Care and Use of Laboratory Animals and the ILAR Guide for the Care and Use of Laboratory Animals. All in vivo studies were conducted following the protocols approved by the Blend Therapeutics Institutional Animal Care and Use Committee. Animals were inoculated with 2.5×10{circumflex over (0)}6 NCI-H69 SCLC (small cell lung cancer) cells in 1:1 RPMI 1640 (Invitrogen, Carlsbad, Calif.)/Matrigel® (BD Biosciences, San Jose, Calif.) via subcutaneous injection to the right flank. Tumors were allowed to reach an approximate volume of ˜500 mm3. Animals were then randomized into treatment groups of 3 animals per time point and were dosed at 1 mg/kg (10% propylene glycol in water for injection for free conjugates, or 10% sucrose for nanoparticles), or 0.4 mg/kg for DM-1 (10% propylene glycol in water for injection). The 24 hour time point was used as a benchmark across conjugates.
Tumor DM-1 levels were determined by liquid chromatography mass spectrometry (LC/MS-MS). Four volumes of 5 mM 6-maleimidohexanoic acid to 1 part tumor v/w was added and homogenized for about 10-15 seconds with a handheld homogenizer. 10 μL of 500 mM Tris(2-carboxyethyl)phosphine was added to 100 uL of tumor homogenate, mixed well and incubated at room temperature for about 5-15 min. 200-300 uL of acetonitrile was used to precipitate proteins in tumor homogenate, samples were centrifuged for 5 min, and supernatant was injected onto LC/MS-MS system for DM-1 analysis.

Where [6] appears, read: Table 6, treated 2 hours, further incubated 70 hours, read-out: H524 IC50.
The mark [7] stands for this setting: read-out: H524 IC50 + 100 μM octreotide, Table 6, with octreotide competition.

In the case of `COc1cccc2c1C(=O)c1c(O)c3c(c(O)c1C2=O)C[C@@](O)(C(=O)COC(=O)CCCC(=O)N[C@H](Cc1ccccc1)C(=O)N[C@H]1CSSC[C@@H](C(=O)N[C@H](CO)[C@@H](C)O)NC(=O)[C@H]([C@@H](C)O)NC(=O)[C@H](CCCCN)NC(=O)[C@@H](Cc2c[nH]c4ccccc24)NC(=O)[C@H](Cc2ccccc2)NC1=O)C[C@@H]3O[C@H]1C[C@H](N)[C@H](O)[C@H](C)O1` [Conjugate 2], the 50% effective concentration (EC50) at SSTR2 [1] worked out at 35 nM. For the same molecule, the “solubility in aqueous media containing surfactants such as Tween 80” value in series [2] is “high solubility”. Also, the results for the IC50 in series [3] (setting [6]) and in series [3] (setting [7]) were 2850 nM and 2940 nM, respectively. Also, the Ki at SSTR2 [4] (read-out: SSTR2 Ki) was found to be 0.24 nM.
Regarding `CO[C@H]1C(=O)[C@]2(C)[C@@H](OC)C[C@H]3OC[C@@]3(OC(C)=O)[C@H]2[C@H](OC(=O)c2ccccc2)[C@]2(O)C[C@H](OC(=O)[C@H](OC(=O)OCCSSCCC(=O)N[C@H](Cc3ccccc3)C(=O)N[C@H]3CSSC[C@@H](C(=O)N[C@H](CO)[C@@H](C)O)NC(=O)[C@H]([C@@H](C)O)NC(=O)[C@H](CCCCN)NC(=O)[C@@H](Cc4c[nH]c5ccccc45)NC(=O)[C@H](Cc4ccccc4)NC3=O)[C@@H](NC(=O)OC(C)(C)C)c3ccccc3)C(C)=C1C2(C)C` [Conjugate 1], the response at SSTR2 [1] was half-maximal at 4.4 nM (EC50). Also, the “solubility in aqueous media containing surfactants such as Tween 80” value in series [2] is “high solubility”. Also, the IC50 in series [3] (setting [6]) was determined as 110 nM; in series [3] (setting [7]), 146 nM. Moreover, the Ki at SSTR2 [4] (read-out: SSTR2 Ki) came to 0.8 nM.
On SSTR2 [1], `COc1cc2cc(c1Cl)N(C)C(=O)C[C@H](OC(=O)[C@H](C)N(C)C(=O)CCSSCCCN[C@H](Cc1ccccc1)C(=O)N[C@H]1CSSC[C@@H](C(=O)N[C@H](CO)[C@@H](C)O)NC(=O)[C@H]([C@@H](C)O)NC(=O)[C@H](CCCCN)NC(=O)[C@@H](Cc3c[nH]c4ccccc34)NC(=O)[C@H](Cc3ccccc3)NC1=O)[C@]1(C)O[C@H]1[C@H](C)[C@@H]1C[C@@](O)(NC(=O)O1)[C@H](OC)/C=C/C=C(\C)C2` [Conjugate 76] returned an EC50 of 3 nM. For the same molecule, the “H69 tumor DM-1 levels” value in series [5] turned out to be 62.2 nM. For the same molecule, the 50% inhibitory concentration (IC50) in series [3] (Table 15, treated 2 hours, further incubated 70 hours, read-out: H524 IC50) stood at 120 nM; in series [3] (read-out: H524 IC50+ 100 uM octreotide, Table 15, 100 μM octreotide for 30 min, then conjugate 2 hours, 70 hours incubation), 768 nM. This molecule gave a Ki on SSTR2 [4] of 0.12 nM.

One may read the EC50 as the concentration at which the effect is half-maximal. A higher EC50 goes with weaker potency. For orientation: IC50 means the point on the concentration scale where inhibition reaches its midpoint. By Ki is commonly meant a measure of affinity in units of concentration, obtained from inhibition or displacement.
